Earlier results on 2 compounds are cited in patent US20080286208A1, “Eye treatment” (priority 2001, published 2008).

The structures appear in SMILES notation. “Also recorded” adds a separate entry of the source. Where two headings read alike, the source gives them in different places.

This data set deals with eye. Conditions: for Stinging when applied to the eye: applied to the eye in suitable dosage.

Take `CN(C)c1ccc(C(=C2C=CC(=[N+](C)C)C=C2)c2c(O)c(S(=O)(=O)[O-])cc3cc(S(=O)(=O)[O-])ccc23)cc1.[Na+]` [Lissamine green]: the “Stinging when applied to the eye” value was “without the disadvantages of toxicity and sting potential; also recorded: does not induce stinging; also recorded: does not significantly sting”.
In the case of `O=C([O-])c1c(Cl)c(Cl)c(Cl)c(Cl)c1-c1c2cc(I)c(=O)c(I)c-2oc2c(I)c([O-])c(I)cc12.[Na+].[Na+]` [rose bengal], the “Stinging when applied to the eye” value is “may result in stinging and pain to an extent that can be disabling for hours post instillation; also recorded: may produce dose related stinging; also recorded: has been found to sting”. Moreover, for the setting “listed as Rose bengal”, the “Stinging when applied to the eye” value is reported as “has a sting potential”. For the same compound, the “Toxicity to the eye” value (post instillation) was “known to be toxic”.
